# Measured values from paper PMC6934700, “Structure-Guided Design of a Fluorescent Probe for the Visualization of FtsZ in Clinically Important Gram-Positive and Gram-Negative Bacterial Pathogens” (Scientific Reports, 2019).
# Legend:
# S. aureus NRS705 (MRSA) = assay: MIC assay by broth microdilution; format: cell-based, Staphylococcus aureus; conditions: for 4× MIC: S. aureus NRS705, concentration equal to four times the MIC; for MIC: Staphylococcus aureus, MRSA NRS705, TH broth, ≥90% growth inhibition after 18-24 hours
# Description: MIC assays of 1, 3, and BOFP were conducted by standard broth microdilution in TH media. Briefly, log-phase S. aureus NRS705 (MRSA) cells were added to 96-well microtiter plates (at 5 × 10^5 CFU/mL) containing 2-fold serial dilutions of each test compound in 0.1 mL of TH broth, with each compound concentration being present in duplicate. The MIC is defined as the lowest compound concentration at which growth is ≥90% inhibited after 18-24 hours of aerobic growth.
# S. aureus NRS705 = assay: Impact of FtsZ inhibitor treatment on cell morphology and FtsZ localization (DIC/fluorescence microscopy, BOFP labeling); format: cell-based, Staphylococcus aureus; conditions: treated at 4x MIC for 3 hours
# Description: (§1) All differential interference contrast (DIC) and fluorescence microscopy experiments were conducted using an Olympus BX50 microscope equipped with an X-cite Exacte 200 W mercury lamp, a 100× Olympus UPLSAPO oil immersion objective (1.40 aperture), as well as both Chroma ET-EGFP (FITC/Cy2) and ET mCherry, Texas Red filters. Images were captured using a QImaging Retiga R3 charge-coupled device (CCD) camera and the Ocular-Version 2.0 software package (QImaging).
# (§2) To visualize the impact of treatment with the FtsZ inhibitor 1 using BOFP, S. aureus NRS705 (MRSA), E. coli N43, and K. pneumoniae ATCC 10031 were grown to log-phase in CAMH broth and diluted to an OD600 of 0.1. […] Following this treatment, 1–5 mL of each culture was centrifuged at 15,000 × g for 1 minute and washed twice with 1 mL of PBS (for S. aureus) or TBS (for E. coli and K. pneumoniae). The resulting S. aureus cell pellets were further processed and labeled with BOFP as described above for the Gram-positive bacterial strains and the resulting E. coli and K. pneumoniae cell pellets were further processed and labeled with BOFP as described above for the Gram-negative bacterial strains. The impact of treating S. aureus NRS705 cells with the FtsZ inhibitors PC190723 and TXA707 at 4× MIC (2 µg/mL for PC190723 and 4 µg/mL for TXA707) was also examined using BOFP as described above.
# K. pneumoniae ATCC 10031 [1] = assay: MIC (stated as 4× MIC used for treatment); format: cell-based, Klebsiella pneumoniae; conditions: concentration equal to four times the MIC
# K. pneumoniae ATCC 10031 [2] = assay: Impact of FtsZ inhibitor treatment on cell morphology and FtsZ localization (DIC/fluorescence microscopy, BOFP labeling); format: cell-based, Klebsiella pneumoniae; conditions: treated at 4x MIC for 3 hours
# Description: as §1, §2
# MRSA LAC FtsZ-mCherry = assay: MIC (stated as 4× MIC used for treatment); format: cell-based, Staphylococcus aureus; conditions: concentration equal to four times the MIC
# E. coli N43 [3] = assay: MIC (stated as 4× MIC used for treatment); format: cell-based, Escherichia coli; conditions: concentration equal to four times the MIC
# E. coli N43 [4] = assay: Impact of FtsZ inhibitor treatment on cell morphology and FtsZ localization (DIC/fluorescence microscopy, BOFP labeling); format: cell-based, Escherichia coli; conditions: treated at 4x MIC for 3 hours
# Description: as §1, §2
# P. aeruginosa (PaFtsZ) = molecular target: T1, P. aeruginosa (PaFtsZ) (Pseudomonas aeruginosa, UniProt P47204); assay: Fluorescence anisotropy binding of BOFP to PaFtsZ; conditions: 0.1 µM compound, 2 µM PaFtsZ, 37 °C
# T1 construct: 6xHis (C); made in house; host or cells: E. coli BLR (DE3), pET-22b(+)
# T1 sequence (P47204 1-394): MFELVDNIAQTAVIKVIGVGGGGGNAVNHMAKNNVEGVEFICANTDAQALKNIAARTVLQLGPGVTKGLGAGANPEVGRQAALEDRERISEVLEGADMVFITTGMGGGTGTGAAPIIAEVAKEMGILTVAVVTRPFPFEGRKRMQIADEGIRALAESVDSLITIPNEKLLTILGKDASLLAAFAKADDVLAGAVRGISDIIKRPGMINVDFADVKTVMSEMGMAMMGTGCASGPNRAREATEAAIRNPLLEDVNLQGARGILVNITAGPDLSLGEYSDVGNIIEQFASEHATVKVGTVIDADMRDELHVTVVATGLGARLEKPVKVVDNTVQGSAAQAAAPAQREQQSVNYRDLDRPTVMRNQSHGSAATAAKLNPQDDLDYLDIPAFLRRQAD
# Description: (§3) Fluorescence anisotropy experiments were performed using an AVIV model ATF105 spectrofluorometer at 15, 25, or 37 °C. In these experiments, bandwidths were set to 4 nm in both the excitation and emission directions, with the excitation and emission wavelengths being set at 488 nm and 510 nm, respectively. BOFP (0.1 µM) was titrated with increasing concentrations (ranging from 0 to 12 µM) of FtsZ in 120 µL of buffer containing 50 mM Tris-HCl (pH 7.6) and 50 mM KCl. After each protein addition, the samples were equilibrated for 3 minutes, whereupon the fluorescence anisotropy was measured.
# (§4) In this equation, r0 is the anisotropy of the protein-free compound, r∞ is the anisotropy of the compound in the presence of an infinite concentration of FtsZ, [C]tot is the total concentration of the compound, and [P]tot is the total concentration of protein with each addition. These analyses yielded the equilibrium dissociation constant (Kd) for each binding reaction.
# (§5) The binding free energy (ΔG) at temperature T was derived from the corresponding Kd value determined at T using the following relationship:2 ΔG=−RTln(1/Kd)
# (§6) The binding enthalpy (ΔH) and entropy (ΔS) were derived from linear fits of the ln(1/Kd) vs. 1/T plots shown in Figs. 3f and 5e using the following relationship:3 ln(1/Kd)=−ΔH/R(1/T)+ΔS/R
# (§7) In comparative control experiments, the anisotropy of 0.1 µM BODIPY FL-COOH or BOFP alone or in the presence of SaFtsZ (10 µM), SpyFtsZ (10 µM), KpFtsZ (2 µM), or PaFtsZ (2 µM) was measured at 37 °C in the same buffer described above.
# [5] = molecular target: T2, FtsZ in S. aureus NRS705 cells (Staphylococcus aureus, UniProt P0A031); format: cell-based; conditions: 1 µg/mL for 5 minutes
# T2 construct: endogenous in cells; host or cells: S. aureus NRS705 (USA100 MRSA)
# Description: as §1
# For visualizing FtsZ in Gram-positive bacteria using BOFP, the bacterial cells were grown to log-phase in media suitable for each individual pathogen. Specifically, S. aureus NRS705 (MRSA) was grown in tryptic soy broth (TSB), E. faecalis ATCC 29212 and E. faecium ATCC 19434 were grown in lactobacilli MRS broth, S. agalactiae ATCC 12386 and S. pneumoniae ATCC 49619 were grown in TH broth, and S. pyogenes ATCC 19615 was grown in CAMH broth supplemented with 3% (v/v) LHB. For each Gram-positive bacterial strain, a total of 1 mL of cell culture was centrifuged at 15,000 × g for 1 minute and washed 2–3 times with 1 mL of PBS. After the final wash, the pelleted cells were resuspended in 500 µL of PBS containing 1 µg/mL of BOFP and incubated in the dark for 5 minutes at room temperature. The cells were then centrifuged at 15,000 × g for 1 minute, washed twice with 1 mL of PBS, and subsequently resuspended in 200 µL of PBS. […]
# S. pyogenes (SpyFtsZ) = S. pyogenes (SpyFtsZ) (Streptococcus pyogenes, UniProt Q99YV7); assay: Fluorescence anisotropy binding of BOFP to SpyFtsZ; conditions: 0.1 µM compound, 10 µM SpyFtsZ, 37 °C
# Description: as §3, §4, §5, §6, §7
# [6] = system: FtsZ in K. pneumoniae ATCC 13883 cells; assay: FtsZ visualization by fluorescence microscopy in live cells; format: cell-based, Klebsiella pneumoniae; conditions: 1 µg/mL for 5 minutes, co-treated with 3.5 mg/mL pentamidine isethionate
# Description: as §1
# For visualizing FtsZ in Gram-negative bacteria using BOFP, E. coli ATCC 25922, K. pneumoniae ATCC 13883, P. aeruginosa ATCC 27853, and A. baumannii ATCC 19606 were grown to log-phase in CAMH broth. For each Gram-negative bacterial strain, a total of 1 mL of cell culture was centrifuged at 15,000 × g for 1 minute and washed twice with 1 mL of Tris-buffered saline (TBS) composed of 50 mM Tris-HCl (pH 7.6) and 150 mM NaCl. After the final wash, the pelleted cells were resuspended in 500 µL of TBS containing 1 µg/mL of BOFP and pentamidine isethionate (at 0.875 mg/mL for E. coli and 3.5 mg/mL for the other three strains). The resuspended cells were then incubated in the dark for 5 minutes at room temperature, centrifuged at 15,000 × g for 1 minute, washed twice with 1 mL of TBS, and subsequently resuspended in 200 µL of TBS. This final cell suspension was then prepared for microscopy as described for the Gram-positive bacterial strains. Comparative control experiments with 1 µg/mL BODIPY FL-COOH were conducted in K. pneumoniae ATCC 13883 cells as described above for BOFP.
# K. pneumoniae (KpFtsZ) = K. pneumoniae (KpFtsZ) (Klebsiella pneumoniae, UniProt A0A0H3GRR0); assay: Fluorescence anisotropy binding of BOFP to KpFtsZ; conditions: 0.1 µM compound, 2 µM KpFtsZ, 37 °C
# Description: as §3, §4, §5, §6, §7
# S. aureus (SaFtsZ) = molecular target: T3, S. aureus (SaFtsZ) (Staphylococcus aureus, UniProt P0A031); assay: biochemical; format: binding; conditions: 0.1 µM compound, 10 µM SaFtsZ, 37 °C
# T3 construct: 6xHis (C); made in house; host or cells: E. coli BLR (DE3), pET-22b(+)
# T3 sequence (P0A031 1-390): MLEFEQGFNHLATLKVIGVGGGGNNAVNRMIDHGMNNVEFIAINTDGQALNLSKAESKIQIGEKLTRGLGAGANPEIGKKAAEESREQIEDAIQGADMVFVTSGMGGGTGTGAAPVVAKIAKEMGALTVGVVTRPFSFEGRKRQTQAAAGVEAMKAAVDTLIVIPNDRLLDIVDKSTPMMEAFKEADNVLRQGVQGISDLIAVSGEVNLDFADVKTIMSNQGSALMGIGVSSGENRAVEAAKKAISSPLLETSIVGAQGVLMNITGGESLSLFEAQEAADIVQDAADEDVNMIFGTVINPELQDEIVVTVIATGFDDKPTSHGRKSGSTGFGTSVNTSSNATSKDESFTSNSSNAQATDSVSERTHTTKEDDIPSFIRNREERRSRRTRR
# Description: as §3, §4, §5, §6
# The impact of guanosine nucleotide and magnesium on the binding of BOFP to SaFtsZ was assessed at 37 °C in the same buffer described above. In these studies, the anisotropy of 0.1 µM BOFP alone or in the presence of 10 µM SaFtsZ was measured, with the latter also being measured in the presence of 0.1 mM GMPCPP (a non-hydrolyzable GTP analog), 10 mM MgCl2, or both.
# as §7
# K. pneumoniae (KpFtsZ), sequence (A0A0H3GRR0 entry or part of it): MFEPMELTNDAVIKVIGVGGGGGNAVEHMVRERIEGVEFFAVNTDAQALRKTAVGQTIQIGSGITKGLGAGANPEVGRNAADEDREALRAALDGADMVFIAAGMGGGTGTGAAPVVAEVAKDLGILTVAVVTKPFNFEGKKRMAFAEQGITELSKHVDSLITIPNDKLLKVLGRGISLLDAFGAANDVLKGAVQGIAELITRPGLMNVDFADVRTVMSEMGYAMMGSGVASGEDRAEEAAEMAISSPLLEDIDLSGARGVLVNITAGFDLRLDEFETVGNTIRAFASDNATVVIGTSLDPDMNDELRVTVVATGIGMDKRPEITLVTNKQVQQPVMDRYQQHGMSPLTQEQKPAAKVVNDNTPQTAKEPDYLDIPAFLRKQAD
# S. pyogenes (SpyFtsZ), sequence (Q99YV7 entry or part of it): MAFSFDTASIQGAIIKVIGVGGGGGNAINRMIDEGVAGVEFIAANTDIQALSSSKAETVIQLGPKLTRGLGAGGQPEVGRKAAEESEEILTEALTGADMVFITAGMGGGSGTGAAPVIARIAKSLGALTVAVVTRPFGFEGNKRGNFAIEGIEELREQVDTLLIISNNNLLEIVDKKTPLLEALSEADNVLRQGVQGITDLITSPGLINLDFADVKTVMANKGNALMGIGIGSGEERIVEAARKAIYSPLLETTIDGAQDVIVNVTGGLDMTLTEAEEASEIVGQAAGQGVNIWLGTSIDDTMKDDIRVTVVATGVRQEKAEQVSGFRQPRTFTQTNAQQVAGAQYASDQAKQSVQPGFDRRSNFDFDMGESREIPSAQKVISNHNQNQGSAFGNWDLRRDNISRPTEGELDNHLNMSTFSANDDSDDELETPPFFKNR
smiles,measurement,setting,value
NC(=O)c1c(F)ccc(OCc2nc3cc(C(F)(F)F)cnc3s2)c1F [TXA707],4× MIC,S. aureus NRS705 (MRSA),4 µg/mL
NC(=O)c1c(F)ccc(OCc2nc(-c3ccc(C(F)(F)F)cc3)c(Br)o2)c1F [compound 1],Change in cell morphology,S. aureus NRS705,cell enlargement
same,FtsZ localization visualized with BOFP,S. aureus NRS705; then 1 µg/mL BOFP for 5 minutes,clear mislocalization of FtsZ and an absence of Z-rings
same,4× MIC,K. pneumoniae ATCC 10031 [1],4 µg/mL
same,Change in cell morphology,K. pneumoniae ATCC 10031 [2],filamentation
same,FtsZ localization visualized with BOFP,K. pneumoniae ATCC 10031 [2]; then 1 µg/mL BOFP with 3.5 mg/mL pentamidine isethionate for 5 minutes,clear mislocalization of FtsZ and an absence of Z-rings
same,4× MIC,S. aureus NRS705 (MRSA),1 µg/mL
same,MIC,S. aureus NRS705 (MRSA),0.25 µg/mL
same,4× MIC,MRSA LAC FtsZ-mCherry,0.25 µg/mL
same,4× MIC,E. coli N43 [3],4 µg/mL
same,Change in cell morphology,E. coli N43 [4],filamentation
same,FtsZ localization visualized with BOFP,E. coli N43 [4]; then 1 µg/mL BOFP with 0.875 mg/mL pentamidine isethionate for 5 minutes,clear mislocalization of FtsZ and an absence of Z-rings
NC(=O)c1c(F)ccc(OCc2nc3cc(Cl)cnc3s2)c1F [PC190723],4× MIC,S. aureus NRS705 (MRSA),2 µg/mL
NC(=O)c1c(F)ccc(OC(CO)c2nc(-c3ccc(C(F)(F)F)cc3)c(Br)o2)c1F (centres unmarked) [compound 3],MIC,S. aureus NRS705 (MRSA),0.5 µg/mL
"CC1=CC(C)=[N+]2C1=Cc1ccc(CCC(=O)O)n1[B-]2(F)F [BODIPY FL-COOH, 3-(5,5-difluoro-7,9-dimethyl-5H-5λ^4,6λ^4-dipyrrolo[1,2-c:2′,1′-f][1,3,2]diazaborinin-3-yl)propanoic acid, reference compound]",Binding interaction (fluorescence anisotropy change on adding FtsZ),P. aeruginosa (PaFtsZ),no binding interactions with BODIPY FL-COOH were detectable
same,Fluorescence staining / FtsZ labeling in live cells,[5],no fluorescence staining of the S. aureus cells was detectable
same,Binding interaction (fluorescence anisotropy change on adding FtsZ),S. pyogenes (SpyFtsZ),no such binding interactions were observable
same,Fluorescence staining / FtsZ labeling in live cells,[6],no such FtsZ staining was detectable
same,Binding interaction (fluorescence anisotropy change on adding FtsZ),K. pneumoniae (KpFtsZ),no binding interactions with BODIPY FL-COOH were detectable
same,Binding interaction (fluorescence anisotropy change on adding FtsZ),S. aureus (SaFtsZ),No such anisotropy change was observed
